Test results published in patent publication US6455530B1, “2R,4S,S,S- and 2S,4R,S,S-hydroxyitraconazole” (Sepracor Inc., priority 1996, dated 2002).

Legend:
Saccharomyces cerevisae = test: Kirby-Bauer testing (paper disk zones of inhibition); type: cell-based; settings: 10 μl of 10 mg/mL solution on 7 mm paper disk, Sabouraud Dextrose agar, 30° C. for 16 hours
Description: (§1) Actively growing cultures of Candida albicans, Cryptococcus neoformens and Saccharomnyces cerevisiae were prepared as described above. The cultures were diluted to a 0.5 McFarland standard and swabbed onto a 150 mm Sabouraud Dextrose agar plates. Paper disks (7 mm) were placed onto the agar plates using a disk dispenser. Next 10 μl of 10 mg/mL solutions of each sample hydroxy-itraconazole was pipetted onto separate paper disks. The plates were then incubated at 30° C. for 16 hours. Zones of inhibition were then measured in mm. Data Represent Zones of Inhibition in mm.

Candida albicans = test: as above; type: cell-based; settings: 10 μl of 10 mg/mL solution on 7 mm paper disk, Sabouraud Dextrose agar, 30° C. for 16 hours
Description: as §1

Cryptococcus neoformens = test: as above; type: cell-based; settings: 10 μl of 10 mg/mL solution on 7 mm paper disk, Sabouraud Dextrose agar, 30° C. for 16 hours
Description: as §1

[1] = oral, daily administration; cited from earlier work

Row | Structure (SMILES) | Zones of Inhibition, Saccharomyces cerevisae (Saccharomyces cerevisae) | Zones of Inhibition, Candida albicans (Candida albicans) | Zones of Inhibition, Cryptococcus neoformens (Cryptococcus neoformens) | Time at which peak plasma levels are attained [1] | zone of inhibition at 10000 µg/mL (Saccharomyces cerevisae; Saccharomyces) | zone of inhibition at 10000 µg/mL (Candida albicans; Candida albicans) | zone of inhibition at 10000 µg/mL (Cryptococcus neoformens; Cryptococcus)
1 | C[C@H]([C@@H](C)O)n1ncn(-c2ccc(N3CCN(c4ccc(OC[C@@H]5CO[C@@](Cn6cncn6)(c6ccc(Cl)cc6Cl)O5)cc4)CC3)cc2)c1=O (single isomer, unassigned) [B diastereomer, (2S,4R)-4-[4-[4-[4-[[2-(2,4-Dichlorophenyl)-2-(1H-1,2,4,-triazole-1-ylmethyl)-1,3-dioxolan-4-yl}methoxy]phenyl]-1-piperazinyl]phenyl]-2,4-dihydro-2-[(1R*,2R*)-(2-hydroxy-1-methylpropyl)-3H-1,2,4-triazol-3-one] | 25 mm | 27 mm | 32 mm |  |  |  | 
2 | CCC(C)n1ncn(-c2ccc(N3CCN(c4ccc(OCC5COC(Cn6cncn6)(c6ccc(Cl)cc6Cl)O5)cc4)CC3)cc2)c1=O (racemic) [± Itraconazole, 4-[4-[4-[4-[[2-(2,4-dichlorophenyl)-2-(1H-1,2,4-triazol-1-ylmethyl)-1,3-dioxolan-4-yl]methoxy]phenyl]-1-piperazinyl]phenyl]-2,4dihydro-2-(1-methylpropyl)-3H-1,2,4triazol-3-one, reference compound] |  |  |  | 15 days | 15 mm | 17 mm | 22 mm
3 | C[C@H]([C@@H](C)O)n1ncn(-c2ccc(N3CCN(c4ccc(OC[C@H]5CO[C@](Cn6cncn6)(c6ccc(Cl)cc6Cl)O5)cc4)CC3)cc2)c1=O (single isomer, unassigned) [A diastereomer, (2R,4S)-4-[4-[4-[4-[[2-(2,4-Dichlorophenyl)-2-(1H-1,2,4-triazole-1-ylmethyl)-1,3-dioxolan-4-yl]methoxy]phenyl]-[-piperazinyl[phenyl]-2,4dihydro-2-[(1R*,2R*)-(2-hydroxy-1-methylpropyl)]-3H -1,2,4-triazol-3-one] | 23 mm | 23 mm | 34 mm |  |  |  | 
